According to article PMC11347135 (2024):

Tests used:
[1] = system: d(CGTATACG)2 (DNA, duplex) CGTATACG; test: UV melting at 260 nm; conditions: 100 mM KCl, 5 mM MgCl2; 20 mM sodium cacodylate pH 7.3; 3 μM DNA, DNA:compound 1:4; 1 °C/min
[2] = system: d(CGTATACG)2 (DNA, duplex) CGTATACG; test: X-ray crystallography, 1.58 Å

Row | SMILES | Tm increase [1] | binding ([2]; 50 mM NaCl, 10 mM MgCl2, 25 mM bis-tris pH 7.0, 15% MPD, 20 °C, 0.3 mM DNA, DNA:DA5 1:1) | binding ([2]; 200 mM KCl, 6 mM MnCl2, 50 mM MES pH 6.3, 10% PEG400, 20 °C, 0.5 mM DNA, 1 mM DA4)
1 | c1ccc2c(NCCCCCNc3c4ccccc4nc4ccccc34)c3ccccc3nc2c1 | ~ 8.6 °C | yes | –
2 | c1ccc2c(NCCCCNc3c4ccccc4nc4ccccc34)c3ccccc3nc2c1 | ~ 5.8 °C | – | yes
